Earlier results, collected in US9255080B2, “Quinazolinedione derivatives as PARP inhibitors” (Janssen Pharmaceutica NV, priority 2004, dated 2016).

Key:
[1] = system: ischemia and reperfusion of the heart; settings: rabbits, cited from earlier work
[2] = system: colitis induced by trinitrobenzene sulfonic acid; settings: rats, colitis by intraluminal trinitrobenzene sulfonic acid in 50% ethanol; cited from earlier work

For `Oc1cccc2c(O)nccc12` [1,5-dihydroxyisoquinoline], the “reduction in infarct size” value ([1]; single injection 1 mg/kg) is listed as 38-48%.

In the case of `NC(=O)c1cccc(N)c1` [3-amino-benzamide], the “reduction in infarct size in the heart” value ([1]; single injection 10 mg/kg, one minute before occlusion or one minute before reperfusion) is given as 32-42% and the “effect on inflammatory response and distal colon” value [2] is given as “reduced the inflammatory response and restored the morphology and the energetic status of the distal colon”.
